Data as given in the OPERA property sets (Mansouri et al. 2018).
≈ marks a conversion by molar mass, not a printed value. Where a SMILES comes first, the peptide text is derived from it.

Settings: not given

Structure (SMILES)	logP	solubility
CCCCCOC(=O)c1ccccc1C(=O)OCCCCC	5.62	–
c1ccc2c(c1)ccc1ccccc12	–	0.00645 mM (≈ 1.15 µg/mL)
Cc1cc(Cc2ccc(Cl)cc2Cl)c(Cl)cc1Cl	7.43	–
CCCCCCC(C)=O	2.37	–
CC(=NN=C(N)N)c1cccs1	1.05	–
CC(C)C1(C)N=C(c2nc3ccccc3cc2C(=O)O)NC1=O (stereo not given)	1.86	–
O=c1[nH]c2ccccc2n1CCCN1CCC(n2c(=O)[nH]c3cc(Cl)ccc32)CC1	3.9	–
CC[C@H](C)[C@H](NC(=O)[C@@H](NC(=O)[C@@H](NC(C)=O)C(C)C)C(C)C)C(N)=O (Ac-Val-Val-Ile-NH2)	0.49	–
CC(CCC(=O)NCC(=O)O)C1CCC2C3CCC4CC(O)CCC4(C)C3CC(O)C12C (stereo not given)	2.25	–
Clc1cc(Cl)c2cc(Cl)ccc2c1	5.35	0.000278 mM (≈ 0.0644 µg/mL)
Brc1cc(Br)c(Oc2cc(Br)c(Br)c(Br)c2)cc1Br	7.4	–
O=C1c2ccccc2C(=O)c2c(O)cccc21	3.52	–
Cc1ccc(C=C(C#N)C#N)o1	2.03	–
CSc1nc(C(Cl)(Cl)Cl)nc(C(Cl)(Cl)Cl)n1	4.42	–
C=COCCn1cnc2c(=N)n(C)c(=O)[nH]c21	-0.24	–
COC(=O)c1cc2ccccc2[nH]1	2.45	–
COC(=O)c1ccccc1S(=O)(=O)NC(=O)Nc1nc(C)cc(C)n1	1.2	–
COc1cc(Cl)c(Cl)c(Cl)c1O	3.72	–
CCNc1nc(NC(C)C)nc(OC)n1	2.69	–

Same assay, conditions: 20 °C

Structure (SMILES)	solubility
CN(C)c1ccc(C(=O)c2ccc(N(C)C)cc2)cc1	1.49 mM (≈ 400 µg/mL)
CCNc1nc(NC(C)C)nc(OC)n1	8.52 mM (≈ 1800 µg/mL)

Same assay, conditions: 22.0 °C

Structure (SMILES)	log10 OH rate constant (cm³/molecule/s)
CCCCCCl	-11.5
COC(F)(F)C(F)(F)C(F)(F)C(F)(F)F	-14.1

Same assay, conditions: 23.0 °C

Structure (SMILES)	log10 OH rate constant (cm³/molecule/s)
C=C(F)F	-11.7
C=C1[C@H]2CC[C@@H]3[C@H]2C(C)(C)CCC[C@]13C	-10.3
c1ccc2c(c1)ccc1ccccc12	-10.9

Same assay, conditions: 24 °C

Structure (SMILES)	solubility
c1ccc2cc3ccccc3cc2c1	0.000244 mM (≈ 0.0434 µg/mL)

Same assay, conditions: 25 °C

Structure (SMILES)	solubility
Clc1cccc(Cl)c1	0.85 mM (≈ 125 µg/mL)
ClC1=C(Cl)C(Cl)(Cl)C(Cl)=C1Cl	0.0066 mM (≈ 1.8 µg/mL)
CCCN(CCC)c1c([N+](=O)[O-])cc(C(C)C)cc1[N+](=O)[O-]	0.000339 mM (≈ 0.105 µg/mL)
CCOC	832 mM (≈ 50000 µg/mL)
FC(Cl)C(F)(F)F (stereo not given)	11 mM (≈ 1500 µg/mL)
COc1ccccc1OCC(O)CO (stereo not given)	252 mM (≈ 50000 µg/mL)
CCCCCCCCCCCCCCCCCO	3.12e-05 mM (≈ 0.008 µg/mL)
CCCCCCC(C)O (racemic)	9.2 mM (≈ 1200 µg/mL)
O=C([O-])CF.[Na+]	11100 mM
CC(Br)CBr (stereo not given)	7.15 mM (≈ 1440 µg/mL)
CC(C)(C)c1cccc(C(C)(C)C)c1O	0.0121 mM (≈ 2.5 µg/mL)
OCCCc1ccccc1	41.7 mM (≈ 5680 µg/mL)
O=C1CCC(N2C(=O)c3ccccc3C2=O)C(=O)N1 (stereo not given)	2.11 mM (≈ 545 µg/mL)
O=C1OC(=O)c2ccccc21	41.9 mM (≈ 6200 µg/mL)
Clc1cc(Cl)c(-c2ccccc2Cl)cc1Cl	5.62e-05 mM (≈ 0.0164 µg/mL)
CCOC(=O)[C@H](CCc1ccccc1)N[C@@H](C)C(=O)N1CCC[C@H]1C(=O)O	43.6 mM (≈ 16400 µg/mL)
Clc1ccc(-c2ccccc2Cl)cc1	0.00524 mM (≈ 1.17 µg/mL)
Cc1ccccc1C	1.68 mM (≈ 178 µg/mL)
CCCCCCCCCCCCCCC	3.58e-07 mM (≈ 7.6e-05 µg/mL)
Brc1ccc(Br)c(-c2cc(Br)c(Br)cc2Br)c1	1.88e-07 mM (≈ 0.000103 µg/mL)
CN(C)C(=O)Nc1ccc(Cl)c(Cl)c1	0.18 mM (≈ 42 µg/mL)
CC(O)COc1ccccc1 (stereo not given)	72.3 mM (≈ 11000 µg/mL)
Cc1cc(C)c(C)c(O)c1	5.59 mM (≈ 762 µg/mL)
Clc1ccc(C(c2ccccc2Cl)C(Cl)Cl)cc1 (stereo not given)	0.000312 mM (≈ 0.1 µg/mL)
O=C1c2ccccc2C(=O)c2c(O)c(O)cc(O)c21	0.025 mM (≈ 6.4 µg/mL)
O=[N+]([O-])c1ccc2ccccc2c1	0.0534 mM (≈ 9.24 µg/mL)
O=C1c2ccccc2C(=O)c2c(O)cccc21	0.0379 mM (≈ 8.5 µg/mL)
CCCCC(CC)CO (stereo not given)	6.02 mM (≈ 785 µg/mL)
CCS(=O)(=O)c1cccnc1S(=O)(=O)NC(=O)Nc1nc(OC)cc(OC)n1	< 0.0232 mM
COCCc1ccc(OCC(O)CNC(C)C)cc1 (stereo not given)	63.2 mM (≈ 16900 µg/mL)

Same assay, conditions: 25.0 °C

Structure (SMILES)	log10 OH rate constant (cm³/molecule/s)
Cc1ccc(C(C)(C)C)cc1	-10.9
NCC(F)(F)F	-12
O=C/C=C/C=O	-10.4
FC(F)Br	-14
CCCC=O	-10.6
FCOC(C(F)(F)F)C(F)(F)F	-13.1
FC(F)OC(F)(F)C(F)Cl (stereo not given)	-13.9
BrCBr	-12.9
Cc1cc2ccccc2cc1C	-10.2
Cc1ccccc1C	-10.9
CC(=O)C=CC=O	-10.3
C=CC1(C)CCC(O)O1 (stereo not given)	-10.1
c1ccc2cc3ccccc3cc2c1	-9.96
CC(C)Br	-12.1

Same assay, conditions: 30 °C

Structure (SMILES)	solubility
BrCBr	68.5 mM (≈ 11900 µg/mL)
CNC(=O)Oc1cccc(C(C)C)c1	0.44 mM (≈ 85 µg/mL)
ClC(Cl)c1ccccc1	1.55 mM (≈ 250 µg/mL)
